Literature values in patent US20090136549A1, “TRANSDERMAL PATCH CONTAINING RASAGILINE FOR TREATMENT OR PROPHYLAXIS OF NERVOUS SYSTEM DISEASE AND ITS PREPARATION PROCESS” (Chongqing Pharmaceutical Research Institute Co., Ltd., priority 2006, published 2009).

How the values were obtained:
patients with early PD = details: rasagiline 2 mg/d for 1 year
[1] = oral administration

## C#CCN[C@@H]1CCc2ccccc21 [rasagiline]
Patients with early PD
  mean UPDRS score lower than that of the patients administered with placebo in the last 6 months: 2.29 units
  mean UPDRS score lower than that of the patients administered with rasagiline 1 mg/d for 1 year: 1.82 units
[1]
  reduction of blood peak concentration by eating: 60%
